# Experimental data reported in patent US11364280B2, “Method for blocking stress-induced tumor progression” (Taipei Veterans General Hospital, priority 2018, dated 2022).
# How the values were obtained:
# [1] = tested on: MSI1 translocation into the cytosol in 05 MG cells; assay: MSI1 subcellular translocation (immunostaining, fractionation immunoblot); format: cell-based, human; settings: cisplatin 30 μM, 24 hours
# Description: Magnifying power: 200× (top) and 600× (bottom). Quantitation of cells expressing cytoplasmic or nuclear MSI1 is shown in the bar graph on the right. FIG. 1B 05 MG cells pre-treated with or without nuclear export inhibitor leptomycinB (LMB) (10 ng/mL, 2 h) under normoxia or hypoxia conditions for 24 hr were subjected to anti-MSI1 (green) immunostaining and DAPI (blue) nuclear counterstaining. Images were acquired from Carl Zeiss confocal microscope system. The intensity of green fluorescence in nuclear and cytosol was quantified and shown as relative percentage in the graph at the right. […] FIG. 1D provides a schematic showing the mutation sites in the NLS (orange) and NES (red) of human MSI1. All constructs were sub-cloned into p-3×Flag-Myc-CMV expression vector. […] Images were acquired from Carl Zeiss confocal microscope system, and the quantification of fluorescent intensity in the nuclear and cytosolic compartments was shown as relative percentage in the graph at the left. […] Tumor size was measure with a caliper at the indicated time points. […] The tumor size was measured with a caliper at the indicated time points. […]
# The ratio of MSI1 expression in each group was presented in the graph. […] Hypoxia-induced apoptosis was withdrawn by the over-expression of wild-type MSI1 but not in mutant MSI1 groups determined by annexin V staining, MTT assay, and colony forming assay. […]
# [2] = molecular target: MSI1/AGO2 interaction (Homo sapiens, UniProt Q9UKV8); assay: Split Gaussia luciferase reconstitution reporter assay; format: cell-based; design: expressed in transfected cells; lysates used for the in vitro read-out; settings: in the presence of cisplatin, IVIS
# Description: The relative orientation of peptide-binding site and AGO2 pocket was depicted. […] The recombinant AGO2 protein was immobilized on CM5 chip and incubated with a serial dilution (from 625 to 10000 nM) of the two peptides, respectively. The association and dissociation between TAT-11, TAT-26 and immobilized AGO2 were tested by SPR (top). The association rate constant (Ka), dissociation rate constant (Kd), and equilibrium dissociation constant (KD) were calculated and presented in the chart (bottom).
# FIG. 14A provides schematic presentation of the constructs of full-length, C-terminus, and N-terminus of MSI1 as well as wild-type AGO2 for purifying recombinant proteins. FIG. 14B provides pull-down assay with recombinant MSI1 and AGO2 proteins showing that the C-terminus of MSI1 is essential for the direct MSI1/AGO2 interaction. […] FIG. 14D provides the schematic illustration of the split luciferase reconstitution imaging system to real-time monitor the interaction between MSI1 and AGO2.
# To use Gaussia luciferase (Gluc) for detecting protein-protein interaction, we split Gaussia luciferase into NGluc (N-terminal Gluc, 106 a.a.) and CGluc (C-terminal Glue. 79 a.a.)^53,54. The two fragments were amplified by polymerase chain reaction (PCR) and subjected to construct fusion protein with MSI1 and AGO2 by the pcDNA 3.1 and pCMV backbone, respectively. Each fusion protein contains a flexible linker (GGGGS)2 between the protein and polypeptides of split luciferase^55,56. Stable cell lines were obtained by stable transfection of both fusion protein expressive plasmids in 05 MG GBM cell line with Hygromycin B (Sigma Aldrich Co., St. Louis, […]., USA) and G418 sulfate (Merck Co., Berlin, Germany). […] The bioluminescent signals were acquired by Wallac 1420 Victor^2 Microplate Reader (Perkin Elmer, Waltham. Mass., USA) equipped with auto-dispenser to avoid rapid decay of GLuc. […] The region of interests (ROI) was automatically chosen by the Living Image 4.2 software and quantified as photon flux in a certain area per second (photons/s/cm^2).
# [3] = tested on: 05 MG/MSI1-wt xenografts; assay: Cisplatin treatment of subcutaneous xenografts overexpressing MSI1-wt; format: in vivo, mice; settings: 477.437 mm^3 without cisplatin
# Description: Magnifying power: 200× (top) and 600× (bottom). Quantitation of cells expressing cytoplasmic or nuclear MSI1 is shown in the bar graph on the right. FIG. 1B 05 MG cells pre-treated with or without nuclear export inhibitor leptomycinB (LMB) (10 ng/mL, 2 h) under normoxia or hypoxia conditions for 24 hr were subjected to anti-MSI1 (green) immunostaining and DAPI (blue) nuclear counterstaining. Images were acquired from Carl Zeiss confocal microscope system. The intensity of green fluorescence in nuclear and cytosol was quantified and shown as relative percentage in the graph at the right. […] FIG. 1D provides a schematic showing the mutation sites in the NLS (orange) and NES (red) of human MSI1. All constructs were sub-cloned into p-3×Flag-Myc-CMV expression vector. […] Images were acquired from Carl Zeiss confocal microscope system, and the quantification of fluorescent intensity in the nuclear and cytosolic compartments was shown as relative percentage in the graph at the left. […] Tumor size was measure with a caliper at the indicated time points. […] Images were acquired from Carl Zeiss confocal microscope system. […] The tumor size was measured with a caliper at the indicated time points. […]
# All procedures involving animals were performed in accordance with the institutional animal welfare guidelines of Taipei Veterans General Hospital. […] Tumor size was measured with calipers^38. […]
# MSI1/AGO2 interaction, sequence (Q9UKV8 whole entry): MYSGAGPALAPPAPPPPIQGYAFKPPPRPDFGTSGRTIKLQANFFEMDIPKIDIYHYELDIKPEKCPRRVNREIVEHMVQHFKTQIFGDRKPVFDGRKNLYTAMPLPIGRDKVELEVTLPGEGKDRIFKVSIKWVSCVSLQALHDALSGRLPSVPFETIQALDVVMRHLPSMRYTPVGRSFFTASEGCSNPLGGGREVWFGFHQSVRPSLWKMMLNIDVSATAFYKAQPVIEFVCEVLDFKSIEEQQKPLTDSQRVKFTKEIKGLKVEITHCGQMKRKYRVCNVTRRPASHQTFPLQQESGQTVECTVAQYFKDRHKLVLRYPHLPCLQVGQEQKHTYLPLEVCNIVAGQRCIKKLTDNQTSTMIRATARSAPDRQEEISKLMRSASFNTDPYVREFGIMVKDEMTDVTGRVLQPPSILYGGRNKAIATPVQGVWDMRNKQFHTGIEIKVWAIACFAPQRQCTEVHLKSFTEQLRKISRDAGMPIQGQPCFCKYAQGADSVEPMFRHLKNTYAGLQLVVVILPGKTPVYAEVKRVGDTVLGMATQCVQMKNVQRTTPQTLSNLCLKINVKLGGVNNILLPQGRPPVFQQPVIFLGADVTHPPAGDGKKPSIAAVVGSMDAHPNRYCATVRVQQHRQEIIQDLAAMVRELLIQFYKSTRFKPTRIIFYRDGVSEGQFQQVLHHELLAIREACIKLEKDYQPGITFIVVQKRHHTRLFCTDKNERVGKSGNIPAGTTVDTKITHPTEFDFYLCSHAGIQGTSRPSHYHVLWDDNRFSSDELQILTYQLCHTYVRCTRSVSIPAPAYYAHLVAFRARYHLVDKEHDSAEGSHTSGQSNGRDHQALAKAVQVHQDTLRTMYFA
smiles,measurement,setting,value
N.N.[Cl][Pt][Cl] [cisplatin],translocation of MSI1 in 05 MG cells,[1],induced
same,bioluminescent signal of split Gaussia luciferase,[2],increase of the bioluminescent signal
same,tumor volume at day 22,[3],774.365 mm^3
